The source of these data is patent publication US5811393A (The Childrens Medical Center Corp., priority 1993, dated 1998).

For experiment [1], the target named is EGF receptor on bovine aortic smooth muscle cells (BASMC) (bovine).
Experiment [2] has as its system bovine aortic smooth muscle cells (BASMC). Description: Bovine aortic smooth muscle cell proliferation by cell counting. The format is cell-based. The note with it: cells counted after three days, 1% calf serum. The procedure: Bovine aortic smooth muscle cell proliferation was also assayed by counting cell number following growth factor stimulation. In these experiments, cells were plated sparsely in 24 well plates in DMEM/10% bovine calf serum/1% GPS (100% GPS is glutamine 29.2 mg/ml, penicillin 10,000 units/ml, streptomycin sulfate 10,000 μg/ml; GIBCO, Grand Island, N.Y.) at 10^4 cells/well. Test samples were then added and, after three days, cells were removed by trypsinization and counted in a Coulter counter (Coulter, Hialeah, Fla.).
BASMC were plated in DMEM, 10% calf serum, 100 U/ml penicillin, 100 μg/ml streptomycin sulfate at 5×10^3 cells/well in a 24 well plate, and, after attachment of the cells (e.g., following an overnight incubation), the media was replaced with DMEM, 1% calf serum, and penicillin and streptomycin as above. HB-EHM, recombinant human EGF (Creative Biomolecules, Hopkinton, Mass.), or recombinant PDGF (Creative Biomolecules, Hopkinton, Mass.) was then added to the wells. Cells were counted after three days.

The conditions of experiment [3]: cited from earlier work.
A further experiment has as its system EGF receptors on BASMC. Nature of the experiment: Competitive [125I]EGF binding to bovine aortic smooth muscle cells. The conditions noted are these: BASMC. The procedure: Competitive binding assays were used to measure this interaction and were performed as follows.
Another experiment has as its system EGF receptor. Nature of the experiment: EGF receptor autophosphorylation in A-431 cells (anti-phosphotyrosine Western blot). The format is cell-based, human. The note with it: 5 ng/ml, 15 minutes. The procedure:
This was shown by plating A-431 cells in 6-well plates and culturing in Dulbecco's Modified Eagle's Medium (DMEM) containing 10% fetal bovine serum and antibiotics. […] After 15 minutes, the cells were washed with ice-cold phosphate-buffered saline containing 0.4 mm EDTA, 10 mM Na-fluorate, 10 mM Na-pyrophosphate and 0.4 mM Na-orthovanadate, scraped and lysed in 100 μl of PI/RIPA buffer [1% NP-40 (Pierce, Rockford, Ill.), 1% deoxycholate (Aldrich, Milwaukee, Wis.), 0.1% SDS, 1% aprotinin (Boehringer-Mannheim, Indianapolis, Ind.), 1 mM PMSF (Pierce), 2 mM EDTA (Sigma), 10 mM Na-fluorate, (Sigma, St. Louis, Mo.), 10 mM Na-pyrophosphate (Baker, Phillipsburg, N.J.), 0.4 mM Na-orthovanadate, (Aldrich), 10 mM iodoacetamide (Aldrich) in phosphate buffered saline]. Thirty μl of supernatant clarified by spinning for a 5 minute period in a microfuge was analyzed by reducing SDS/polyacrylamide gel electrophoresis (6% polyacrylamide gel). […] A standard of phosphorylated EGF receptor was purchased from UBI (Lake Placid, N.Y.).
(In general: In western blotting, separated proteins are transferred to a membrane and probed.)

Experiment [4] has as its target EGF receptor on bovine aortic smooth muscle cells (BASMC) (bovine). The source holds these as a separate data set.
A further experiment deals with BALB/c mouse 3T3 cells. Description: DNA synthesis ([3H]-thymidine incorporation) / proliferation of BALB/c mouse 3T3 cells. The note with it: E. coli-produced protein. It is filed as cell-based. On the technique in general: Uptake of a labelled nucleoside into DNA is a usual measure of proliferation.

Protocol for BALB/c mouse 3T3 cells: Conditioned medium was assayed for growth factor activity directly, as described below, using either fibroblasts (i.e., BALB/c mouse 3T3 cells), epithelial cells (i.e., human keratinocytes), or smooth muscle cells (i.e., bovine aortic smooth muscle cells, BASMC). Alternatively, CM was first fractionated by fast protein liquid chromatography (FPLC, Pharmacia, Piscataway, N.J.) by applying 500 ml of the CM to a TSK-heparin 5PW column (8×75 mm, TOSOHAAS, Philadelphia, Pa.). The column was washed with 10 column volumes of equilibration buffer (0.2M NaCl, 0.01M Tris-HCl, pH 7.5), and bound protein was eluted with a 40 ml linear gradient of 0.2-2M NaCl in 0.01M Tris-HCl , pH 7.4 at 1 ml/min. Fractions (2.5 ml) were tested for growth factor activity by measuring the effect of aliquots of the fractions on DNA synthesis in, or the proliferation of, BALB/c mouse 3T3 cells; such activity was monitored by assaying the incorporation of [^3 H]-thymidine into DNA and/or by measuring the increase in cell number. […] One unit of BALB/c mouse 3T3 stimulation activity was defined as the amount of growth factor required to stimulate half-maximal DNA synthesis in BALB/c mouse 3T3 cells under the conditions described in Shing et al. (supra).

The molecule “recombinant human EGF (from UniProt P01133) (ligand)” returned a BASMC proliferation (cell count after three days) (fold increase) in experiment [1] of 2.5.

In the case of PDGF, in experiment [2] (500 pg/ml), the “increase in BASMC proliferation” value came to 2.5 fold. The “NaCl concentration eluting from immobilized heparin columns” value in experiment [3] (literature values) is recorded as 0.5 M.

“EGF: epidermal growth factor, recombinant human, commercial comparator [reference compound]”: the “50% inhibition of [125I]EGF binding” value in the experiment with EGF receptors on BASMC (6-well plates) is 290 pg/mL. Besides, the IC50 with EGF receptors on BASMC (read-out: 50% inhibition of [125I]EGF binding, molar value in brackets) was found to be 48 pM. Moreover, the “increase in BASMC proliferation” value in experiment [2] (4 ng/ml) is listed as 2.5 fold. In addition, the binding to heparin entry in experiment [3] (conditions of the cited references) is “does not bind heparin to any substantial extent”. In the experiment with EGF receptor, the “autophosphorylation of the EGF receptor (170 kDa protein)” value is listed as “also phosphorylated”.

B1: heparin binding EGF-homologous mitogen (HB-EHM), purified from U-937 conditioned medium, 33 minute peak form (ligand)
chain: RVTLSSKPQALATPNKEEHGKRKKKGKGLGKKRDPCLRKYKDFCIHGECKYVKELRAPSCICHPGYHGERCHGLS
modifications: O-linked glycosylation (suggested by O-glycanase treatment; the threonines predicted at positions 2 and 12 of the form first sequenced were not detected in protein sequencing)
B1 came in with a Maximal Stimulation (ng/ml), from 3H-thymidine incorporation into smooth muscle cell DNA, C4 RP-HPLC step in experiment [4] of 0.5 ng/mL. In addition, the BASMC proliferation (cell count after three days) (fold increase) in experiment [1] turned out to be 2.5.

B2: recombinant HB-EHM: HB-EHM produced in E. coli from plasmid pNA28 as CAT fusion, cleaved, refolded and purified (protein)
chain: RVTLSSKPQALATPNKEEHGKRKKKGKGLGKKRDPCLRKYKDFCIHGECKYVKELRAPSCICHPGYHGERCHGLS
modifications: O-linked glycosylation (suggested by O-glycanase treatment; the threonines predicted at positions 2 and 12 of the form first sequenced were not detected in protein sequencing)
B2: in the experiment with BALB/c mouse 3T3 cells, the “activity in the BALB/c 3T3 [3H]-thymidine uptake/incorporation assay” value is on record as “active”.
